Data from patent publication US11951131B2, “Anti-SLAMF7 chimeric antigen receptors” (The United States of America, as represented by the …, priority 2018, dated 2024).

How the values were obtained:
[1] = test system: NGFR-K562; assay: IFN-gamma ELISA, CAR T cells with NGFR-K562 target cells; format: cell-based, human
Description: (§1) MM.1S is a SLAMF7^+ multiple myeloma cell line that was obtained from American Type Culture Collection (ATCC). A549 is a BCMA-negative lung cancer cell line (ATCC). TC71 is a BCMA-negative sarcoma cell line. CCRF-CEM, 293T, and A549 are SLAMF7-negative cell lines (ATCC). COL0207, HepG2, U251, Panc10.05, and TC71 are […] that were kind gifts from Dr. Steven Rosenberg, National Cancer Institute. SLAMF7-K562 are K562 cells (ATCC) which were transduced with the gene for full-length SLAMF7. SLAMF7-RPMI are RPMI8226 cells (ATCC) which were transduced with the gene for full-length SLAMF7. NGFR-K562 are K562 cells which were transduced with the gene for low-affinity nerve growth factor (Kochenderfer et al., J. Immunother., 32(7): 689-702 (2009)). All of the human samples mentioned were obtained from patients enrolled in IRB-approved clinical trials at the National Cancer Institute.
(§2) One-hundred thousand SLAMF7^+ or SLAMF7-negative target cells were combined with 100,000 CAR-transduced T cells in duplicate wells of a 96 well round bottom plate in 200 µL of AIM V™ medium (Invitrogen) plus 5% human serum. The plates were incubated at 37° C. for 18-20 hours. Following the incubation, ELISAs (enzyme-linked immunosorbent assays) for IFNγ were performed by using standard methods.
The T cells columns indicate whether T cells were transduced with Luc90-CD828Z, Luc63-CD828Z, or were untransduced. The % CAR^+ in Table B-1 was determined by staining the T cells with Protein L. Except for the % CAR^+ column, all values are pg/mL of IFN-gamma. T cells that were either untransduced or transduced with one of the indicated CARs were cultured with target cells overnight and a standard IFN-gamma ELISA was performed on the culture supernatant.
(§3) All values are pg/mL of IFN-gamma. T cells that were either untransduced or transduced with one of the indicated CARs were cultured with target cells overnight, and a standard IFN-gamma ELISA was performed on the culture supernatant.
The values in the cells are pg/mL of IFN-gamma. T cells that were either untransduced or transduced with one of the indicated CARs were cultured with target cells overnight, and a standard IFN-gamma ELISA was performed on the culture supernatant. The concentrations of 0, 50, or 200 ng/mL at the top of each column indicates the concentration of soluble SLAMF7 added to all T cell plus target cell overnight cultures in that column. The soluble SLAMF7 was added at the beginning of the overnight culture.

[2] = test system: Panc 10.05; assay: IFN-gamma ELISA, CAR T cells with Panc 10.05 target cells; format: cell-based, human; details: Table B-2
Description: as §1
(§4) One-hundred thousand SLAMF7^+ or SLAMF7-negative target cells were combined with 100,000 CAR-transduced T cells in duplicate wells of a 96 well round bottom plate in 200 µL of AIM V™ medium (Invitrogen) plus 5% human serum. […]
(§5) The T cells columns indicate whether T cells were transduced with Luc90-CD828Z, Luc63-CD828Z, or were untransduced. The % CAR^+ in Table B-1 was determined by staining the T cells with Protein L. Except for the % CAR^+ column, all values are pg/mL of IFN-gamma. […]

[3] = test system: 293T; assay: IFN-gamma ELISA, CAR T cells with 293T target cells; format: cell-based, human; details: Table B-1; SLAMF7-negative cell line
Description: as §1, §4, §5

[4] = test system: HepG2; assay: IFN-gamma ELISA, CAR T cells with HepG2 target cells; format: cell-based, human; details: Table B-1
Description: as §1, §4, §5

[5] = test system: H929; assay: IFN-gamma ELISA, CAR T cells with H929 target cells; format: cell-based, human; details: Table C
Description: as §2, §3

[6] = test system: IC9-expressing T cells; assay: 6-hour and 48-hour post-rimiducid T cell death analysis; format: cell-based, human; details: for elimination of CAR T cells when AP1903 was added to the T-cell cultures: per construct, in words
Description: On day 8 of culture, 1 million T cells from cultures that were either untransduced or transduced with one of the anti-SLAMF7 CARs cells were suspended at 1×10^6 T cells/mL in AIM V™ media (Invitrogen) plus 300 IU of interleukin-2. One million cells were added to each of 4 wells of a 12-well plate. A different concentration of AP1903 (MedChem Express, Princeton, N.J.) from was added to each well. AP1903 is also referred to as rimiducid. The concentrations of AP1903 evaluated were: 0, 1, 10, or 100 ng/mL.
Six hours and 48 hours after these cultures were set up, the cells were counted, washed, and stained with Protein L as described above. Next, the cells were washed twice with PBS, re-suspended in Annexin V binding buffer (BD Biosciences), and incubated with allophycocyanin-conjugated Annexin V (BD Biosciences) and 7AAD (BD Biosciences) for 15 minutes (mins) at room temp. The cells were immediately analyzed by flow cytometry.

[7] = test system: SLAMF7^+ MM.1S cells; assay: CD107a degranulation assay; format: cell-based, human; details: CD4^+ and CD8^+ T cells, cultured with MM.1S versus NGFR-K562, 4 hours
Description: For each T cell culture that was tested, two tubes were prepared. One tube contained MM.1S cells, and the other tube contained NGFR-K562 cells. Both tubes contained CAR-transduced T cells, 1 ml of AIM V™ medium (Invitrogen) plus 5% human AB serum, a titrated concentration of an anti-CD107a antibody (eBioscience, clone eBioH4A3, ThermoFisher Scientific), and 1 μL of GOLGISTOP™ (a protein transport inhibitor containing monensin, BD Biosciences). All tubes were incubated at 37° C. for 4 hours and then stained for CD3, CD4, and CD8.

[8] = test system: IC9-Luc90-CD828Z CAR T cells; assay: AP1903 abrogation of CAR T-cell activity in MM.1S tumor-bearing mice; format: in vivo, NSG mice; details: 2×10^6 IC9-Luc90-CD828Z T cells plus vehicle control
Description: First, MM.1S human SLAMF7^+ multiple myeloma cell line tumors were established in immunodeficient mice. In this model, the MM.1S cells formed a solid cutaneous mass. Measurable tumors were allowed to develop over 7 days, and then the mice were treated with a single intravenous infusion of MSGV1-IC9-Luc90-CD828Z-transduced human T cells. NSG mice (NOD.Cg-Prkdc^scid Il2rg^tm1Wjl/SzJ) from The Jackson Laboratory, Bar Harbor, Me., were used. Mice received intradermal injections of 4×10^6 MM.1S cells. The cells were suspended in a 1:1 mixture of MATRIGEL™ gelatinous protein mixture (BD Biosciences) and PBS (Phosphate-buffered saline) for injection. Tumors were allowed to grow for 7 days, and then each mouse received a single intravenous infusion of human T cells that were transduced with one of 3 CARs: IC9-Luc90-CD828Z (suicide gene+anti-SLAMF7 CAR), Luc90-CD828Z (anti-SLAMF7 CAR alone), or a negative-control anti-CD19 CAR Hu19-CD828Z. A 4th group was left untreated. All groups included 5 mice. After CAR T-cell infusion, the tumors were measured with calipers every 3 days. The longest length and the length perpendicular to the longest length and the tumor thickness were multiplied together to obtain the tumor volume in mm^3. When the longest length reached 15 mm, mice were sacrificed. Animal studies were approved by the National Cancer Institute Animal Care and Use Committee.
MM.1S tumors were established in NSG mice as described in Example 9. The mice were treated with 2×10^6 IC9-Luc90-CD828Z T cells. The mice received 5 mg/kg of AP1903 intraeritoneally for either 3 days or 12 days after the CAR T-cell infusion. […] Also levels of IC9-Luc90-CD828Z CART cells in the mice receiving AP1903 were reduced as compared to the mice receiving the vehicle.

Substance	IFN-gamma, target cells NGFR-K562 ([1]; Table B-2, SLAMF7-negative) [pg/mL]	IFN-gamma, target cells NGFR-K562 ([1]; Table C) [pg/mL]	IFN-gamma, target cells NGFR K562 0 ng/ml ([1]; Table D, soluble SLAMF7 added 0 ng/ml) [pg/mL]	IFN-gamma, target cells NGFR K562 50 ng/ml ([1]; Table D, soluble SLAMF7 added 50 ng/ml) [pg/mL]	IFN-gamma, target cells NGFR K562 200 ng/ml ([1]; Table D, soluble SLAMF7 added 200 ng/ml) [pg/mL]	IFN-gamma, target cells Panc 10.05 [2] [pg/mL]	IFN-gamma, target cells 293T [3] [pg/mL]	IFN-gamma, target cells HepG2 [4] [pg/mL]	IFN-gamma, target cells H929 [5] [pg/mL]	elimination of CAR T cells when AP1903 was added to the T-cell cultures [6]	CD107a upregulation (degranulation) [7]	IFN-gamma, NGFR-K562 ([1]; Table E) [pg/mL]	tumor outcome in mice receiving vehicle instead of AP1903 [8]	elimination of CAR^+ T cells, comparison of the two constructs ([6]; IC9-Luc90-CD828Z compared with Luc90-CD828Z-IC9)
Luc90-CD828Z: anti-SLAMF7 CAR (SEQ ID NO: 27): murine Luc90 scFv, human CD8a hinge and TM, CD28 and CD3ζ domains; tested as transduced T cells	45	26	267	223	224	36	37	24	531	efficiently eliminated	degranulated	–	–	–
IC9-Luc90-CD828Z: CAR plus suicide gene construct (SEQ ID NO: 31): IC9 suicide gene 5′ to the CAR, T2A, Luc90-CD828Z	–	–	–	–	–	–	–	–	–	efficiently eliminated	–	30	tumor elimination	slightly superior
